The test system of one experiment is A375. Kind of experiment: CellTiter-Glo proliferation and viability assay. It counts as cell-based. The conditions noted are these: Homo sapiens, A-375, parental A375 B-Raf V600E cells, comparison with A375res. Background: In ATP-based viability assays light output follows the ATP content of the culture.
Another experiment concerns A375res cells. Kind of experiment: CellTiter-Glo proliferation and viability assay in vemurafenib-resistant cells. It counts as cell-based, human.

A word on the IC50: it is the concentration that gives 50% inhibition.

`CCCS(=O)(=O)Nc1ccc(F)c(C(=O)c2c[nH]c3ncc(-c4ccc(Cl)cc4)cc23)c1F` [PLX4032, vemurafenib]: the IC50 with A375 is 252 nM; with A375res cells (Homo sapiens, A375res cells), greater than 7000 nM. The “shift of IC50, A375res versus A375” value in the experiment on A375res cells was roughly 30 fold.

Values taken from patent publication US8741911B2, “Raf inhibitor compounds” (Eli Lilly and Company, priority 2012, dated 2014).
